# Test results taken from US20140329863A1 (priority 2011, published 2014).
# Marks after values point to notes of the source that are not given here.
# System: N2a-cl3 cells
# Assay: cells
# Settings: Mus musculus, N2a-cl3, read-out: Dividing Calcein EC50 (μM) Mean (n = 3)
row,Structure (SMILES),EC50
1,"Cc1ccnc(Nc2nc(-c3cc(-c4ccccc4)no3)cs2)c1 [compound 43, (4-Methylpyridin-2-yl)-[4-(3-phenylisoxazol-5-yl)-thiazol-2-yl]-amine]",> 32 µM

# Same assay, conditions: Mus musculus, N2a-cl3, read-out: potency in cell viability, dividing cells
row,Structure (SMILES),EC50
1,Cc1ccc2[nH]c3c(c2c1)CCCC3NCCCN(C)C (stereo not drawn) [IND-23308],> 10 µM

# Same assay, conditions: Mus musculus, N2a-cl3, read-out: potency in cell viability, stationary-phase cells
row,Structure (SMILES),EC50
1,Cc1ccc2[nH]c3c(c2c1)CCCC3NCCCN(C)C (stereo not drawn) [IND-23308],> 10 µM

# System: PrP^Sc in dividing ScN2a-cl3 cells
# Assay: not given
# Format: cell-based, mouse
# Parameters: Dividing ELISA pEC50 (μM) 1st Expt. / Dividing ELISA pEC50 (μM) 2nd Expt. / Dividing ELISA pEC50 (μM) 3rd Expt. / Dividing ELISA pEC50 (μM) Mean: unit not given here
# Settings: AMT analogs tested for potency
row,Structure (SMILES),EC50
1,"Cc1ccc(Nc2nc(-c3ccc(OC(F)(F)F)cc3)cs2)nc1 [IND26, (5-Methyl-pyridin-2-yl)-[4-(4-trifluoromethoxy-phenyl)-thiazol-2-yl]-amine]",> 10 µM
2,"Cc1ccc(Nc2nc(-c3cccc(C#N)c3)cs2)nc1 [IND38, 3-[2-(5-Methyl-pyridin-2-ylamino)-thiazol-4-yl]-benzonitrile]",2.29 µM
3,"Cc1ccnc(Nc2nc(-c3ccc4c(c3)OCCO4)cs2)c1 [IND57, [4-(2,3-Dihydro-benzo[1,4]dioxin-6-yl)-thiazol-2-yl]-(4-methyl-pyridin-2-yl)-amine]",> 10 µM

# Same assay, conditions: SPC assay, dividing cells
row,Structure (SMILES),Inhibition of Baseline PrP^5c (%) Dividing Cells ELISA
1,Cc1ccc2[nH]c3c(c2c1)CCCC3NCCCN(C)C (stereo not drawn) [IND-23308],88%

# Same assay, conditions: ScN2a-cl3 dividing cells; 1st determination
row,Structure (SMILES),Dividing ELISA pEC50 (μM) 1st Expt.
1,"Cc1ccnc(Nc2nc(-c3cc(-c4ccccc4)no3)cs2)c1 [compound 43, (4-Methylpyridin-2-yl)-[4-(3-phenylisoxazol-5-yl)-thiazol-2-yl]-amine]",5.98

# Same assay, conditions: ScN2a-cl3 dividing cells; 2nd determination
row,Structure (SMILES),Dividing ELISA pEC50 (μM) 2nd Expt.
1,"Cc1ccnc(Nc2nc(-c3cc(-c4ccccc4)no3)cs2)c1 [compound 43, (4-Methylpyridin-2-yl)-[4-(3-phenylisoxazol-5-yl)-thiazol-2-yl]-amine]",5.96

# Same assay, conditions: ScN2a-cl3 dividing cells; 3rd determination
row,Structure (SMILES),Dividing ELISA pEC50 (μM) 3rd Expt.
1,"Cc1ccnc(Nc2nc(-c3cc(-c4ccccc4)no3)cs2)c1 [compound 43, (4-Methylpyridin-2-yl)-[4-(3-phenylisoxazol-5-yl)-thiazol-2-yl]-amine]",5.78

# Same assay, conditions: ScN2a-cl3 dividing cells; mean of three determinations
row,Structure (SMILES),Dividing ELISA pEC50 (μM) Mean
1,"Cc1ccnc(Nc2nc(-c3cc(-c4ccccc4)no3)cs2)c1 [compound 43, (4-Methylpyridin-2-yl)-[4-(3-phenylisoxazol-5-yl)-thiazol-2-yl]-amine]",5.90

# Same assay, conditions: Table 29; 2-AMT analogs tested for potency; usually n = 3 or more
row,Structure (SMILES),EC50
1,"Cc1ccc(Nc2nc(-c3ccc(OC(F)(F)F)cc3)cs2)nc1 [IND26, (5-Methyl-pyridin-2-yl)-[4-(4-trifluoromethoxy-phenyl)-thiazol-2-yl]-amine]",> 10 µM
2,"Cc1ccc(Nc2nc(-c3cccc(C#N)c3)cs2)nc1 [IND38, 3-[2-(5-Methyl-pyridin-2-ylamino)-thiazol-4-yl]-benzonitrile]",2.29 µM
3,"Cc1ccnc(Nc2nc(-c3ccc4c(c3)OCCO4)cs2)c1 [IND57, [4-(2,3-Dihydro-benzo[1,4]dioxin-6-yl)-thiazol-2-yl]-(4-methyl-pyridin-2-yl)-amine]",> 10 µM

# Same assay, conditions: read-out: Dividing ELISA EC50 (μM) 1st Expt.; ScN2a-cl3 dividing cells; 1st determination
row,Structure (SMILES),EC50
1,"Cc1ccnc(Nc2nc(-c3cc(-c4ccccc4)no3)cs2)c1 [compound 43, (4-Methylpyridin-2-yl)-[4-(3-phenylisoxazol-5-yl)-thiazol-2-yl]-amine]",1.05 µM

# Same assay, conditions: read-out: Dividing ELISA EC50 (μM) 2nd Expt.; ScN2a-cl3 dividing cells; 2nd determination
row,Structure (SMILES),EC50
1,"Cc1ccnc(Nc2nc(-c3cc(-c4ccccc4)no3)cs2)c1 [compound 43, (4-Methylpyridin-2-yl)-[4-(3-phenylisoxazol-5-yl)-thiazol-2-yl]-amine]",1.1 µM

# Same assay, conditions: read-out: Dividing ELISA EC50 (μM) 3rd Expt.; ScN2a-cl3 dividing cells; 3rd determination
row,Structure (SMILES),EC50
1,"Cc1ccnc(Nc2nc(-c3cc(-c4ccccc4)no3)cs2)c1 [compound 43, (4-Methylpyridin-2-yl)-[4-(3-phenylisoxazol-5-yl)-thiazol-2-yl]-amine]",1.67 µM

# Same assay, conditions: read-out: Dividing ELISA EC50 (μM) Mean; ScN2a-cl3 dividing cells; mean of three determinations
row,Structure (SMILES),EC50
1,"Cc1ccnc(Nc2nc(-c3cc(-c4ccccc4)no3)cs2)c1 [compound 43, (4-Methylpyridin-2-yl)-[4-(3-phenylisoxazol-5-yl)-thiazol-2-yl]-amine]",1.28 µM

# Same assay, conditions: read-out: EC50, PrP^Sc ELISA in dividing ScN2a-c13 cells
row,Structure (SMILES),EC50
1,Cc1ccc2[nH]c3c(c2c1)CCCC3NCCCN(C)C (stereo not drawn) [IND-23308],1.58 µM

# System: PrP^Sc in nondividing ScN2a-cl3 cells
# Assay: not given
# Format: cell-based, mouse
# Settings: HTS, nondividing cells
row,Structure (SMILES),HTS % inhibition
1,Cc1ccc2[nH]c3c(c2c1)CCCC3NCCCN(C)C (stereo not drawn) [IND-23308],70%

# Same assay, conditions: SPC assay, nondividing cells
row,Structure (SMILES),Inhibition of Baseline PrP^5c (%) Non-dividing Cells ELISA
1,Cc1ccc2[nH]c3c(c2c1)CCCC3NCCCN(C)C (stereo not drawn) [IND-23308],94^d %

# Same assay, conditions: SPC assays, nondividing cells
row,Structure (SMILES),SPC % inhibition
1,Cc1ccc2[nH]c3c(c2c1)CCCC3NCCCN(C)C (stereo not drawn) [IND-23308],94%

# Same assay, conditions: read-out: EC50, PrP^Sc ELISA in stationary-phase (nondividing) cells
row,Structure (SMILES),EC50
1,Cc1ccc2[nH]c3c(c2c1)CCCC3NCCCN(C)C (stereo not drawn) [IND-23308],7.5 µM

# Same assay, conditions: read-out: Non-Dividing ELISA EC50 (μM) Mean (n = 3); ScN2a-c13 non-dividing cells; mean n = 3
row,Structure (SMILES),EC50
1,"Cc1ccnc(Nc2nc(-c3cc(-c4ccccc4)no3)cs2)c1 [compound 43, (4-Methylpyridin-2-yl)-[4-(3-phenylisoxazol-5-yl)-thiazol-2-yl]-amine]",> 32 µM

# System: N2a-cl3 cells
# Assay: not given
# Settings: not given
Structure (SMILES),Dividing Cells V (cell viability percentages),Effect on cell viability (EC50),Non-dividing Cells V (cell viability percentages)
Cc1ccc2[nH]c3c(c2c1)CCCC3NCCCN(C)C (stereo not drawn) [IND-23308],30%,no effect on cell viability,12%

# System: not given
# Assay: not given
# Settings: not given
row,Structure (SMILES),melting point
1,"Cc1ccc(Nc2nc(-c3ccc(OC(F)(F)F)cc3)cs2)nc1 [IND26, (5-Methyl-pyridin-2-yl)-[4-(4-trifluoromethoxy-phenyl)-thiazol-2-yl]-amine]",205 to 207 °C
2,"Cc1ccc(Nc2nc(-c3cccc(C#N)c3)cs2)nc1 [IND38, 3-[2-(5-Methyl-pyridin-2-ylamino)-thiazol-4-yl]-benzonitrile]",268 to 272 °C
3,"Cc1ccnc(Nc2nc(-c3ccc4c(c3)OCCO4)cs2)c1 [IND57, [4-(2,3-Dihydro-benzo[1,4]dioxin-6-yl)-thiazol-2-yl]-(4-methyl-pyridin-2-yl)-amine]",230 to 240 °C
